Experimental data: patent publication US20220348595A1, “COMPOUNDS AND METHODS FOR THE TARGETED DEGRADATION OF ESTROGEN RECEPTORS” (Endotarget Inc., priority 2021, published 2022)
Where two headings read alike, the source gives them in different places.

Legend:
Format in all cases: cell-based
ER = biological target: T1, ER (Homo sapiens, UniProt P03372); assay: ER antagonism (T47D ERE luciferase), T47d-kb-Luc cells; settings: read-out: IC50 (ER antagonistm)
T1 construct: endogenous in cells; host or cells: T47d-kb-Luc (T47D stably transfected with a luciferase reporter gene only)
T1 sequence (P03372 1-595): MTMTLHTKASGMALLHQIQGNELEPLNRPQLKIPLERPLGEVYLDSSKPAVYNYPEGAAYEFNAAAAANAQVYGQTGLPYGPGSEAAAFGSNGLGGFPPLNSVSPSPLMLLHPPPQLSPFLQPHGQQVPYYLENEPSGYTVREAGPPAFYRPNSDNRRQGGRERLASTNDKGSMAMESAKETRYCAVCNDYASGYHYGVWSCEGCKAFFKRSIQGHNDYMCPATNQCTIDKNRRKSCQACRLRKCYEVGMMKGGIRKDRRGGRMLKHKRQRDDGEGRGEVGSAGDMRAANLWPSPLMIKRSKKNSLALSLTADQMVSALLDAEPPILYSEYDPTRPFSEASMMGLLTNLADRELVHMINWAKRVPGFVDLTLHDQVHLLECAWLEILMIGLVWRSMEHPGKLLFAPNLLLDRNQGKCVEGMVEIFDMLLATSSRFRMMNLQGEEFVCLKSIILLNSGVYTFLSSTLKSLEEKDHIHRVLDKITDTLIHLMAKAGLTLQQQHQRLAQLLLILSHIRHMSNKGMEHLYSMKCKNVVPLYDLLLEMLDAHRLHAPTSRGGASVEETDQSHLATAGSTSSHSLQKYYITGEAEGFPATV
Procedure: The Antiestrogenic Activity of the Exemplary Compounds was Assessed in T47d-kb-Luc Stably Transfected Human Breast Cancer Cell
Antagonist activities were measured by the compound's ability to inhibit the activity of estradiol, the natural estrogen. Data were then normalized relative to the activity of the estradiol control and determinations were performed for five concentrations of the samples in quadruplicate in at least three separate experiments.

[1] = tested on: MCF-7 breast cancer cells; assay: MCF-7 proliferation / cell viability assay; settings: MCF-7 proliferation with 0.1 nM 17-beta estradiol, read-out: IC50 (anti-proliferation)
Procedure: The Anti-Proliferative Activities of the Exemplary Compounds were Assessed by a Cell Viability Assay in MCF-7 Breast Cancer Cells
MCF-7 cells were plated in six-well plates at a density of 50,000 each well in 5% FBS DMEM medium. The cells were then treated with exemplary compounds or fulvestrant separately at 6 different doses ranging from 10^−10 M to 10^−5 M for 5 days, while equal volumes of DMSO were used as vehicle controls. Viable cell numbers were counted with a Z Series Coulter Counter instrument (Beckman-Coulter) following manufacturer's instructions. The ratio of drug treated viable cell numbers to vehicle treated viable cell numbers was defined as survival ratio where the control has the survival ratio of 100%.

ERα = biological target: T2, ERα (Homo sapiens, UniProt P03372); assay: ER degradation in MCF-7 cells (Western blot); settings: for DC50: ER degradation, 24 hours; for Dmax: MCF7, Maximal ER degradation, read-out: Dmax
T2 construct: endogenous in cells; host or cells: MCF-7
T2 sequence (P03372 1-595): T1 sequence (P03372 1-595)
Procedure: Degradation of ER in MCF-7 Breast Cancer Cells by Exemplary Compounds of the Present Disclosure
MCF-7 cells were plated in 24-well plates at a density of 10^5 cells/well. Media containing various drug concentrations were added on the day following plating (day 0) and allowed to incubate for 24 hours for Western blot. Media with the tested compound was changed every other day. Cells were lysed, snapped frozen in liquid nitrogen, and stored at −80° C. until assay for ERα. Media were removed and dishes were washed with 1× DPBS. Lysates were made by adding 150 μL of complete lysis solution and scraping cells into a 1.5 mL microcentrifuge tube. Lysates were placed on a rotisserie at 4° C. for 30 min and then spun at 4° C. at 12000 rcf for 10 min. Supernatants were assayed for protein content, snap-frozen, and stored a −80° C. if not run immediately. Then 50 μg of protein was subjected to Western blot protocol. Membranes were blocked and then incubated with 1:200 dilution of ERα antibody at 4° C. overnight followed by 1:10000 dilution of secondary antibody for 1 h at room temperature. They were then imaged on a LICOR infrared scanner.
FIGS. 1 to 10 show the ER degradation efficacy of compounds 3, 5, 9, 11, 12, 16, 18, 19, 20, 21, 23, 24, 25, 26, 27, 28, 29, 30, 31, 32, 33, 34, 37, 38, and 40 in MCF-7 cells at various concentrations. Degradation of ER was expressed as an DC50 value and was determined for exemplary compounds in Table 1 by calculation of the concentration of compound that was required to give a 50% reduction of ER expression level. Maximal degradation of ER was expressed as a Dmax value by measuring the highest percentage of ER reduction achieved by exemplary compound in the treatment concentration range.

IC50 (ER)	IC50 [1]	DC50 (ERα)	IC50 ([1]; Homo sapiens, MCF7)	Dmax (ERα)	Structure (SMILES)
10 to 50 nM	10 to 50 nM	< 10 nM	–	–	CCC(=C(c1ccc(OCCN2CCN(CC3CCN(c4ccc5c(c4)C(=O)N(C4CCC(=O)NC4=O)C5=O)CC3)CC2)cc1)c1ccc(B(O)O)cc1)c1ccccc1 (stereo in doubt) [Compound 18, (E)-(4-(1-(4-(2-(4-((1-(2-(2,6-dioxopiperidin-3-yl)-1,3-dioxoisoindolin-5-yl)piperidin-4-yl)methyl)piperazin-1-yl)ethoxy)phenyl)-2-phenylbut-1-en-1-yl)phenyl)boronic acid]
10 to 50 nM	–	< 10 nM	10 to 50 nM	> 90%	CC/C(=C(\c1ccc(B(O)O)cc1)c1ccc(N2CCC(CN3CCN(c4ccc5c(c4)CN(C4CCC(=O)NC4=O)C5=O)CC3)CC2)cc1)c1ccccc1 (stereo not shown) [Compound 1]
10 to 50 nM	–	< 10 nM	10 to 50 nM	> 90%	CC/C(=C(/c1ccc(B(O)O)cc1)c1ccc(N2CCC(CN3CCN(c4ccc5c(c4)CN(C4CCC(=O)NC4=O)C5=O)CC3)CC2)cc1)c1ccccc1 (stereo not shown) [Compound 2, (E)-(4-(1-(4-(4-((4-(2-(2,6-dioxopiperidin-3-yl)-1-oxoisoindolin-5-yl)piperazin-1-yl)methyl)piperidin-1-yl)phenyl)-2-phenylbut-1-en-1-yl)phenyl)boronic acid]
< 10 nM	–	> 50 nM	< 10 nM	> 75%	CC/C(=C(\c1ccc(B(O)O)cc1)c1ccc(N2CCC(CN3CCN(c4ccc5c(c4)C(=O)N(C4CCC(=O)NC4=O)C5)CC3)CC2)cc1)c1ccccc1 (stereo not shown) [Compound 3, (Z)-(4-(1-(4-(4-((4-(2-(2,6-dioxopiperidin-3-yl)-3-oxoisoindolin-5-yl)piperazin-1-yl)methyl)piperidin-1-yl)phenyl)-2-phenylbut-1-en-1-yl)phenyl)boronic acid]
< 10 nM	–	> 50 nM	< 10 nM	> 75%	CC/C(=C(/c1ccc(B(O)O)cc1)c1ccc(N2CCC(CN3CCN(c4ccc5c(c4)C(=O)N(C4CCC(=O)NC4=O)C5)CC3)CC2)cc1)c1ccccc1 (stereo not shown) [Compound 4, (E)-(4-(1-(4-(4-((4-(2-(2,6-dioxopiperidin-3-yl)-3-oxoisoindolin-5-yl)piperazin-1-yl)methyl)piperidin-1-yl)phenyl)-2-phenylbut-1-en-1-yl)phenyl)boronic acid]
10 to 50 nM	–	10 to 50 nM	> 50 nM	> 90%	CC/C(=C(\c1ccc(B(O)O)cc1)c1ccc(N2CCC(CN3CCN(c4ccc5c(c4)C(=O)N(C4CCC(=O)NC4=O)C5=O)CC3)CC2)cc1)c1ccccc1 (stereo not shown) [Compound 5, (Z)-(4-(1-(4-(4-((4-(2-(2,6-dioxopiperidin-3-yl)-1,3-dioxoisoindolin-5-yl)piperazin-1-yl)methyl)piperidin-1-yl)phenyl)-2-phenylbut-1-en-1-yl)phenyl)boronic acid]
10 to 50 nM	–	10 to 50 nM	> 50 nM	> 90%	CC/C(=C(/c1ccc(B(O)O)cc1)c1ccc(N2CCC(CN3CCN(c4ccc5c(c4)C(=O)N(C4CCC(=O)NC4=O)C5=O)CC3)CC2)cc1)c1ccccc1 (stereo not shown) [Compound 6, (E)-(4-(1-(4-(4-((4-(2-(2,6-dioxopiperidin-3-yl)-1,3-dioxoisoindolin-5-yl)piperazin-1-yl)methyl)piperidin-1-yl)phenyl)-2-phenylbut-1-en-1-yl)phenyl)boronic acid]
< 10 nM	–	10 to 50 nM	10 to 50 nM	> 90%	CC/C(=C(\c1ccc(B(O)O)cc1)c1ccc(N2CCC(CCN3CCN(c4ccc5c(c4)CN(C4CCC(=O)NC4=O)C5=O)CC3)CC2)cc1)c1ccccc1 (stereo not shown) [Compound 7, (Z)-(4-(1-(4-(4-(2-(4-(2-(2,6-dioxopiperidin-3-yl)-1-oxoisoindolin-5-yl)piperazin-1-yl)ethyl)piperidin-1-yl)phenyl)-2-phenylbut-1-en-1-yl)phenyl)boronic acid]
< 10 nM	–	10 to 50 nM	10 to 50 nM	> 90%	CC/C(=C(/c1ccc(B(O)O)cc1)c1ccc(N2CCC(CCN3CCN(c4ccc5c(c4)CN(C4CCC(=O)NC4=O)C5=O)CC3)CC2)cc1)c1ccccc1 (stereo not shown) [Compound 8, (E)-(4-(1-(4-(4-(2-(4-(2-(2,6-dioxopiperidin-3-yl)-1-oxoisoindolin-5-yl)piperazin-1-yl)ethyl)piperidin-1-yl)phenyl)-2-phenylbut-1-en-1-yl)phenyl)boronic acid]
< 10 nM	–	10 to 50 nM	< 10 nM	> 90%	CC/C(=C(\c1ccc(B2OC(C)(C)C(C)(C)O2)cc1)c1ccc(N2CCC(CCN3CCN(c4ccc5c(c4)CN(C4CCC(=O)NC4=O)C5=O)CC3)CC2)cc1)c1ccccc1 (stereo not shown) [Compound 9, (Z)-3-(1-oxo-5-(4-(2-(1-(4-(2-phenyl-1-(4-(4,4,5,5-tetramethyl-1,3,2-dioxaborolan-2-yl)phenyl)but-1-en-1-yl)phenyl)piperidin-4-yl)ethyl)piperazin-1-yl)isoindolin-2-yl)piperidine-2,6-dione]
< 10 nM	–	10 to 50 nM	< 10 nM	> 90%	CC/C(=C(/c1ccc(B2OC(C)(C)C(C)(C)O2)cc1)c1ccc(N2CCC(CCN3CCN(c4ccc5c(c4)CN(C4CCC(=O)NC4=O)C5=O)CC3)CC2)cc1)c1ccccc1 (stereo not shown) [Compound 10, (E)-3-(1-oxo-5-(4-(2-(1-(4-(2-phenyl-1-(4-(4,4,5,5-tetramethyl-1,3,2-dioxaborolan-2-yl)phenyl)but-1-en-1-yl)phenyl)piperidin-4-yl)ethyl)piperazin-1-yl)isoindolin-2-yl)piperidine-2,6-dione]
< 10 nM	–	< 10 nM	< 10 nM	> 90%	CC/C(=C(\c1ccc(B(O)O)cc1)c1ccc(N2CCC(CNC3CCN(c4ccc5c(c4)CN(C4CCC(=O)NC4=O)C5=O)CC3)CC2)cc1)c1ccccc1 (stereo not shown) [Compound 11]
< 10 nM	–	< 10 nM	< 10 nM	> 90%	CC/C(=C(/c1ccc(B(O)O)cc1)c1ccc(N2CCC(CNC3CCN(c4ccc5c(c4)CN(C4CCC(=O)NC4=O)C5=O)CC3)CC2)cc1)c1ccccc1 (stereo not shown) [Compound 12]
< 10 nM	–	< 10 nM	< 10 nM	> 90%	CC/C(=C(\c1ccc(B(O)O)cc1)c1ccc(N2CCC(CNC3CCN(c4ccc5c(c4)C(=O)N(C4CCC(=O)NC4=O)C5)CC3)CC2)cc1)c1ccccc1 (stereo not shown) [Compound 13, (Z)-(4-(1-(4-(4-(((1-(2-(2,6-dioxopiperidin-3-yl)-3-oxoisoindolin-5-yl)piperidin-4-yl)amino)methyl)piperidin-1-yl)phenyl)-2-phenylbut-1-en-1-yl)phenyl)boronic acid]
